In ChEMBL document CHEMBL2413072, “Synthesis and in vitro anticancer studies of novel C-2 arylidene congeners of lantadenes” (2013):
Activity calls are given as the source filed them. The rule behind the calls is not given here.

Experiments:
Assay type in all cases: functional
HOP-92 [1] = experiment: Growth inhibition of human HOP92 cells assessed as growth inhibition at 10 uM by sulforhodamine B assay
K562 [2] = experiment: Growth inhibition of human K562 cells assessed as cell growth at 10 uM by sulforhodamine B assay; conditions: read-out: Activity
PC-3 [3] = experiment: Growth inhibition of human PC3 cells assessed as growth inhibition at 10 uM by sulforhodamine B assay; conditions: read-out: GI
CAKI-1 [4] = experiment: Growth inhibition of human CAKI-1 cells assessed as growth inhibition at 10 uM by sulforhodamine B assay; conditions: read-out: GI
SF-539 [5] = experiment: Growth inhibition of human SF539 cells assessed as cell growth at 10 uM by sulforhodamine B assay; conditions: read-out: Activity
[6] = Growth inhibition of human HCC2998 cells assessed as growth inhibition at 10 uM by sulforhodamine B assay; conditions: HCC 2998, read-out: GI
[7] = Growth inhibition of human Hs 578T cells assessed as cell growth at 10 uM by sulforhodamine B assay; conditions: read-out: Activity
UO-31 = experiment: Growth inhibition of human UO31 cells assessed as cell growth at 10 uM by sulforhodamine B assay; conditions: read-out: Activity
CAKI-1 [8] = experiment: Growth inhibition of human CAKI-1 cells assessed as cell growth at 10 uM by sulforhodamine B assay; conditions: read-out: Activity
MDA-MB-231 [9] = experiment: Growth inhibition of human MDA-MB-231 cells assessed as cell growth at 10 uM by sulforhodamine B assay; conditions: read-out: Activity
HOP-92 [10] = experiment: Growth inhibition of human HOP92 cells assessed as cell growth at 10 uM by sulforhodamine B assay; conditions: read-out: Activity
HT-29 = experiment: Growth inhibition of human HT-29 cells assessed as growth inhibition at 10 uM by sulforhodamine B assay; conditions: read-out: GI
OVCAR-4 [11] = experiment: Growth inhibition of human OVCAR4 cells assessed as growth inhibition at 10 uM by sulforhodamine B assay; conditions: read-out: GI
DU-145 = experiment: Growth inhibition of human DU145 cells assessed as cell growth at 10 uM by sulforhodamine B assay; conditions: read-out: Activity
T47D = experiment: Growth inhibition of human T47D cells assessed as growth inhibition at 10 uM by sulforhodamine B assay; conditions: read-out: GI
HOP-62 = experiment: Growth inhibition of human HOP62 cells assessed as growth inhibition at 10 uM by sulforhodamine B assay; conditions: read-out: GI
SK-OV-3 = experiment: Growth inhibition of human SKOV3 cells assessed as cell growth at 10 uM by sulforhodamine B assay; conditions: read-out: Activity
SK-MEL-5 [12] = experiment: Growth inhibition of human SK-MEL-5 cells assessed as cell growth at 10 uM by sulforhodamine B assay; conditions: read-out: Activity
BT-549 = experiment: Growth inhibition of human BT549 cells assessed as growth inhibition at 10 uM by sulforhodamine B assay; conditions: read-out: GI
SF-539 [13] = experiment: Growth inhibition of human SF539 cells assessed as growth inhibition at 10 uM by sulforhodamine B assay; conditions: read-out: GI
A549 [14] = experiment: Growth inhibition of human A549/ATCC cells assessed as growth inhibition at 10 uM by sulforhodamine B assay; conditions: read-out: GI
SW-620 [15] = experiment: Growth inhibition of human SW620 cells assessed as cell growth at 10 uM by sulforhodamine B assay; conditions: read-out: Activity
KM12 [16] = experiment: Growth inhibition of human KM12 cells assessed as cell growth at 10 uM by sulforhodamine B assay; conditions: read-out: Activity
SF-268 = experiment: Growth inhibition of human SF268 cells assessed as cell growth at 10 uM by sulforhodamine B assay; conditions: read-out: Activity
SN12C = experiment: Growth inhibition of human SN12C cells assessed as cell growth at 10 uM by sulforhodamine B assay; conditions: read-out: Activity
Malme-3M [17] = experiment: Growth inhibition of human MALME-3M cells assessed as growth inhibition at 10 uM by sulforhodamine B assay; conditions: read-out: GI
[18] = Growth inhibition of human EKVX cells assessed as cell growth at 10 uM by sulforhodamine B assay; conditions: read-out: Activity
SNB-19 = experiment: Growth inhibition of human SNB19 cells assessed as growth inhibition at 10 uM by sulforhodamine B assay
RPMI-8226 = experiment: Growth inhibition of human RPMI8226 cells assessed as cell growth at 10 uM by sulforhodamine B assay; conditions: read-out: Activity
TK-10 = experiment: Growth inhibition of human TK10 cells assessed as cell growth at 10 uM by sulforhodamine B assay; conditions: read-out: Activity
SK-MEL-5 [19] = experiment: Growth inhibition of human SK-MEL-5 cells assessed as growth inhibition at 10 uM by sulforhodamine B assay; conditions: read-out: GI
COLO 205 = experiment: Growth inhibition of human COLO205 cells assessed as cell growth at 10 uM by sulforhodamine B assay; conditions: read-out: Activity
K562 [20] = experiment: Growth inhibition of human K562 cells assessed as growth inhibition at 10 uM by sulforhodamine B assay; conditions: read-out: GI
KM12 [21] = experiment: Growth inhibition of human KM12 cells assessed as growth inhibition at 10 uM by sulforhodamine B assay; conditions: read-out: GI
SR = experiment: Growth inhibition of human SR cells assessed as growth inhibition at 10 uM by sulforhodamine B assay; conditions: read-out: GI
PC-3 [22] = experiment: Growth inhibition of human PC3 cells assessed as cell growth at 10 uM by sulforhodamine B assay; conditions: read-out: Activity
SK-MEL-2 = experiment: Growth inhibition of human SK-MEL-2 cells assessed as growth inhibition at 10 uM by sulforhodamine B assay; conditions: read-out: GI
SNB-75 = experiment: Growth inhibition of human SNB75 cells assessed as growth inhibition at 10 uM by sulforhodamine B assay; conditions: read-out: GI
MDA-MB-231 [23] = experiment: Growth inhibition of human MDA-MB-231 cells assessed as growth inhibition at 10 uM by sulforhodamine B assay; conditions: read-out: GI
Malme-3M [24] = experiment: Growth inhibition of human MALME-3M cells assessed as cell growth at 10 uM by sulforhodamine B assay; conditions: read-out: Activity
OVCAR-8 = experiment: Growth inhibition of human OVCAR8 cells assessed as cell growth at 10 uM by sulforhodamine B assay; conditions: read-out: Activity
IGROV-1 = experiment: Growth inhibition of human IGROV1 cells assessed as cell growth at 10 uM by sulforhodamine B assay; conditions: read-out: Activity
U-251 = experiment: Growth inhibition of human U251 cells assessed as growth inhibition at 10 uM by sulforhodamine B assay; conditions: read-out: GI
SW-620 [25] = experiment: Growth inhibition of human SW620 cells assessed as growth inhibition at 10 uM by sulforhodamine B assay; conditions: read-out: GI
OVCAR-4 [26] = experiment: Growth inhibition of human OVCAR4 cells assessed as cell growth at 10 uM by sulforhodamine B assay; conditions: read-out: Activity
MCF7 = experiment: Growth inhibition of human MCF7 cells assessed as growth inhibition at 10 uM by sulforhodamine B assay; conditions: read-out: GI
NCI-H522 = experiment: Growth inhibition of human NCI-H522 cells assessed as growth inhibition at 10 uM by sulforhodamine B assay; conditions: read-out: GI
A549 [27] = experiment: Growth inhibition of human A549/ATCC cells assessed as cell growth at 10 uM by sulforhodamine B assay; conditions: read-out: Activity
UACC-257 = experiment: Growth inhibition of human UACC257 cells assessed as growth inhibition at 10 uM by sulforhodamine B assay; conditions: read-out: GI
[28] = Growth inhibition of human NCI-ADR-RES cells assessed as cell growth at 10 uM by sulforhodamine B assay; conditions: read-out: Activity

## C/C=C(/C)C(=O)O[C@@H]1CC(C)(C)C[C@H]2C3=CC[C@@H]4[C@@]5(C)CC[C@H](O)C(C)(C)[C@@H]5CC[C@@]4(C)[C@]3(C)CC[C@@]12C(=O)O [Reduced Lantadene A]
HOP-92 [1]
  growth inhibition (GI): Active
K562 [2]
  growth at 10 µM: 35.9%
PC-3 [3]
  inhibition of growth at 10 µM: 66.7%
CAKI-1 [4]
  inhibition of growth at 10 µM: 70.5%
SF-539 [5]
  growth at 10 µM: 43%
[6]
  inhibition of growth at 10 µM: 73.6%
[7]
  growth at 10 µM: -17.2%
UO-31
  growth at 10 µM: -26%
CAKI-1 [8]
  growth at 10 µM: 29.5%
MDA-MB-231 [9]
  growth at 10 µM: 22.2%
HOP-92 [10]
  growth at 10 µM: -54.2%
HT-29
  inhibition of growth at 10 µM: 44.2%
OVCAR-4 [11]
  inhibition of growth at 10 µM: 36.8%
DU-145
  growth at 10 µM: 74.9%
T47D
  inhibition of growth at 10 µM: 24.3%
HOP-62
  inhibition of growth at 10 µM: 75.7%
SK-OV-3
  growth at 10 µM: 41.8%
SK-MEL-5 [12]
  growth at 10 µM: 53.2%
BT-549
  inhibition of growth at 10 µM: 73.9%
SF-539 [13]
  inhibition of growth at 10 µM: 57%
A549 [14]
  inhibition of growth at 10 µM: 72.6%
SW-620 [15]
  growth at 10 µM: 39.1%
KM12 [16]
  growth at 10 µM: 21.7%
SF-268
  growth at 10 µM: 25.9%
SN12C
  growth at 10 µM: 5.77%
Malme-3M [17]
  inhibition of growth at 10 µM: 64.8%
[18]
  growth at 10 µM: 36.5%
SNB-19
  growth inhibition (GI): Active
RPMI-8226
  growth at 10 µM: 21.1%
TK-10
  growth at 10 µM: 66.8%
SK-MEL-5 [19]
  inhibition of growth at 10 µM: 46.8%
COLO 205
  growth at 10 µM: 28.2%
K562 [20]
  inhibition of growth at 10 µM: 64.1%
KM12 [21]
  inhibition of growth at 10 µM: 78.3%
SR
  inhibition of growth at 10 µM: 38.1%
PC-3 [22]
  growth at 10 µM: 33.3%
SK-MEL-2
  inhibition of growth at 10 µM: 45.9%
SNB-75
  inhibition of growth at 10 µM: 88%
MDA-MB-231 [23]
  inhibition of growth at 10 µM: 77.8%
Malme-3M [24]
  growth at 10 µM: 35.2%
OVCAR-8
  growth at 10 µM: 57.7%
IGROV-1
  growth at 10 µM: 35.1%
U-251
  inhibition of growth at 10 µM: 61.8%
SW-620 [25]
  inhibition of growth at 10 µM: 60.9%
OVCAR-4 [26]
  growth at 10 µM: 63.2%
MCF7
  inhibition of growth at 10 µM: 39%
NCI-H522
  inhibition of growth at 10 µM: 50.3%
A549 [27]
  growth at 10 µM: 27.4%
UACC-257
  inhibition of growth at 10 µM: 39.4%
[28]
  growth at 10 µM: 69.8%

## CC(C)=CC(=O)O[C@@H]1CC(C)(C)C[C@H]2C3=CC[C@@H]4[C@@]5(C)CC[C@H](O)C(C)(C)[C@@H]5CC[C@@]4(C)[C@]3(C)CC[C@@]12C(=O)O [Reduced Lantadene B]
HOP-92 [1]; read-out: GI
  inhibition of growth at 10 µM: 57%
K562 [2]
  growth at 10 µM: 45.2%
PC-3 [3]
  inhibition of growth at 10 µM: 54.6%
CAKI-1 [4]
  inhibition of growth at 10 µM: 64.4%
SF-539 [5]
  growth at 10 µM: 54.7%
[6]
  inhibition of growth at 10 µM: 38%
[7]
  growth at 10 µM: 85.5%
UO-31
  growth at 10 µM: 60.9%
CAKI-1 [8]
  growth at 10 µM: 35.6%
MDA-MB-231 [9]
  growth at 10 µM: 81.3%
HOP-92 [10]
  growth at 10 µM: 43%
HT-29
  inhibition of growth at 10 µM: 50.7%
OVCAR-4 [11]
  inhibition of growth at 10 µM: 29.3%
DU-145
  growth at 10 µM: 86.6%
T47D
  inhibition of growth at 10 µM: 13.3%
HOP-62
  inhibition of growth at 10 µM: 46.3%
SK-OV-3
  growth at 10 µM: 89.4%
SK-MEL-5 [12]
  growth at 10 µM: 61.5%
BT-549
  inhibition of growth at 10 µM: 21.9%
SF-539 [13]
  inhibition of growth at 10 µM: 45.3%
A549 [14]
  inhibition of growth at 10 µM: 76.5%
SW-620 [15]
  growth at 10 µM: 66.9%
KM12 [16]
  growth at 10 µM: 34.3%
SF-268
  growth at 10 µM: 92.2%
SN12C
  growth at 10 µM: 50.9%
Malme-3M [17]
  inhibition of growth at 10 µM: < 10%
[18]
  growth at 10 µM: 47.7%
SNB-19; read-out: GI
  inhibition of growth at 10 µM: 14.4%
RPMI-8226
  growth at 10 µM: 23.7%
TK-10
  growth at 10 µM: 79.9%
SK-MEL-5 [19]
  inhibition of growth at 10 µM: 38.5%
COLO 205
  growth at 10 µM: 68.1%
K562 [20]
  inhibition of growth at 10 µM: 54.8%
KM12 [21]
  inhibition of growth at 10 µM: 65.7%
SR
  inhibition of growth at 10 µM: 29.8%
PC-3 [22]
  growth at 10 µM: 45.4%
SK-MEL-2
  inhibition of growth at 10 µM: 13.5%
SNB-75
  inhibition of growth at 10 µM: 26.8%
MDA-MB-231 [23]
  inhibition of growth at 10 µM: 18.7%
Malme-3M [24]
  growth at 10 µM: 96.7%
OVCAR-8
  growth at 10 µM: 59.9%
IGROV-1
  growth at 10 µM: 78.3%
U-251
  inhibition of growth at 10 µM: 60.8%
SW-620 [25]
  inhibition of growth at 10 µM: 33.1%
OVCAR-4 [26]
  growth at 10 µM: 70.7%
MCF7
  inhibition of growth at 10 µM: 37.3%
NCI-H522
  inhibition of growth at 10 µM: 32.4%
A549 [27]
  growth at 10 µM: 23.5%
UACC-257
  inhibition of growth at 10 µM: < 10%
[28]
  growth at 10 µM: 54.5%
